The subject of experiment [1] is Bcl-2. The experiment is described as follows: Western blot of Bcl-2 expression in MCF-7. It counts as cell-based, human. The following applies: MCF-7, Western blot, normalised to β-actin. An excerpt: (§1) It is well known that the anti-apoptotic proteins Bcl-2 and Bcl-xL are mainly overexpressed in various types of cancer, causing survival of cancer cells and/or drug resistance. Therefore, inhibition of these proteins expression leads to cancer cell death and has been used as a strategy for anticancer drug development. In this study, the impact of compounds 1 and 11 on Bcl-2 and Bcl-xL expression in HCT-116 and MCF-7 cancer cell lines was examined using Western blot analysis and all the data were normalised to β-actin (Figure 9).
(§2) 2.5. Impact of compounds 1 and 11 on the level of anti-apoptotic markers (Bcl-2, and Bcl-xL).
(§3) Gel electrophoresis and immuno-blot analysis of proteins (Western Blot) method was used to examine the effect of compounds 1 and 11 on the level of anti-apoptotic markers (Bcl-2, and Bcl-xL). […]
(§4) The cells were then immediately frozen at −20 °C for 1 h for further lysis and collected by cell scraper and sonicated 2×10s. Total protein concentrations were determined colorimetrically using Bradford method before proceeding to the western blotting. […] Briefly, the membranes were incubated for 1 min with a mixture of equal volumes from ECL solution A and ECL solution B. The chemiluminescent signals were captured using a CCD camera-based imager (Chemi Doc imager, Biorad, USA), and the band intensities were then measured with β-actin as an internal reference protein. […]
(In general: Immunoblotting shows a protein as a band on a membrane.)

For experiment [2], the system named is Bcl-2. The experiment is described as follows: Western blot of Bcl-2 expression in HCT-116. The class given is cell-based, human. The conditions noted are these: HCT-116, Western blot, normalised to β-actin.
Text: as §1, §2, §3, §4

For another experiment, the system named is WI-38 cells. As to the kind of experiment: Cytotoxicity against normal fibroblasts, SRB assay, WI-38. It counts as cell-based. The following applies: normal human fibroblasts, 72 h, mean ± SD of three separate experiments. An excerpt: Several of these derivatives were reported as acting as competitive inhibitors of different tyrosine kinases, with potent cytotoxic activity against various cell lines[58]^,[59]. […] Thus, in this study a novel series of benzoxazole-benzamide conjugates was initially evaluated for their potential anti-cancer activity against colon cancer cell line (HCT-116), breast cancer cell line (MCF-7) and normal human fibroblasts (WI-38), using the Sulforhodamine B colorimetric (SRB) assay.
2.1. Anti-proliferative activity against HCT-116 and MCF-7 human cancer cells lines.
The sulforhodamine B (SRB) assays were performed according to Skehan et al..
Briefly, exponentially growing cells were trypsinized, counted and seeded at the appropriate densities (5000 cells/100 μL/ well) into 96-well microtiter plates. Cells were incubated in a humidified atmosphere at 37 °C for 24 h. Then, the cells were exposed to the tested compounds at the desired concentrations (0.01, 0.1, 1, 10, and 100 μM) or to 1% dimethyl sulfoxide (DMSO) for 72 h. At the end of the treatment period, the media were removed, and the cells were fixed with 10% trichloroacetic acid at 4 °C for 1 h. Following, the cells were washed with tap water four times and incubated with SRB 0.4% for 30 min. Excess dye was removed by washing repeatedly with 1% (vol/vol) acetic acid. The protein-bound dye was dissolved in 10 mM Tris base solution for (optical density) OD determination at 510 nm using a Spectra Max plus Microplate Reader (Molecular Devices, CA). Cell viability was expressed relative to the untreated control cells. […]

In a further experiment the target is T1, VEGFR-2 Protein Kinase (Homo sapiens, UniProt P35968).
T1 construct: It includes active VEGFR-2 kinase; purchased HTScan VEGF Receptor-2 Kinase Assay Kit
T1 sequence (P35968 20-1356): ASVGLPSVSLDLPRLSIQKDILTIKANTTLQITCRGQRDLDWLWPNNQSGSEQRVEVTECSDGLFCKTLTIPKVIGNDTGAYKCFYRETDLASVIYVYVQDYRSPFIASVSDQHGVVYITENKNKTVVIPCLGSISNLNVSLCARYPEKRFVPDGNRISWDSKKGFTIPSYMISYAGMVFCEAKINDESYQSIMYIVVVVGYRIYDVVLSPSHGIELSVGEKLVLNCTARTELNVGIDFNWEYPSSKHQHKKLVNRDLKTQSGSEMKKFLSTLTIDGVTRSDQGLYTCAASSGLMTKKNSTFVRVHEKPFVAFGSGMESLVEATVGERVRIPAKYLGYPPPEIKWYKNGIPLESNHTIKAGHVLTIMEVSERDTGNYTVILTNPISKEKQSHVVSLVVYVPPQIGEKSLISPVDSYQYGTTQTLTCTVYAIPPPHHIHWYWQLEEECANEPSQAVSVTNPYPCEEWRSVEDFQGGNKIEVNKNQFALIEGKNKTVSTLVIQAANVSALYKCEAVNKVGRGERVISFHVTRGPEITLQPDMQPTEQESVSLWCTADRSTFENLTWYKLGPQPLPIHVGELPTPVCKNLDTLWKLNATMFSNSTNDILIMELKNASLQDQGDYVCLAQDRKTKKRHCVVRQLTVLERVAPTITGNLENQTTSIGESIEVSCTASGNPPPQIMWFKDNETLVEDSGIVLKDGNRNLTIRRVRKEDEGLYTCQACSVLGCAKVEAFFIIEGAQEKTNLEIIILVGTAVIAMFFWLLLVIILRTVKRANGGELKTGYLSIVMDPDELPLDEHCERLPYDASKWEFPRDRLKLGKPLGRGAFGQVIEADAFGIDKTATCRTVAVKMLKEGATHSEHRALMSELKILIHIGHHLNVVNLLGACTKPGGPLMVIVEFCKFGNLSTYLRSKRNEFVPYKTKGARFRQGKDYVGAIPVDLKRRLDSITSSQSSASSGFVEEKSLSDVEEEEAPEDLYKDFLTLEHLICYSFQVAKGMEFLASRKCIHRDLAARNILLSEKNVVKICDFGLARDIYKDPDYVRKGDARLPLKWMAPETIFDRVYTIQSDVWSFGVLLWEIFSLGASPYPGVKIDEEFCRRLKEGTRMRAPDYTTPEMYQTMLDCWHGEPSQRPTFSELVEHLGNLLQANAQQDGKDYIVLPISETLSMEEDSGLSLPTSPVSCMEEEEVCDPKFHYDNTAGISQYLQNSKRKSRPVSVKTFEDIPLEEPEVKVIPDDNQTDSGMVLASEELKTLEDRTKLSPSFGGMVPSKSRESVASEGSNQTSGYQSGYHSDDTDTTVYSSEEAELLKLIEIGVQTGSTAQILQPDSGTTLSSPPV
The experiment is described as follows: VEGFR-2 inhibitory activity (HTScan VEGF Receptor-2 Kinase Assay Kit, ELISA). The class given is biochemical. The conditions noted are these: mean of three individual experiments. How it is done: 2.2. VEGFR-2 Inhibitory activity
VEGFR-2 ELISA (Enzyme-Linked Immunosorbent Assay) kits (HTScan® VEGF Receptor-2 […]
phospho-tyrosine antibody) for detection of the phosphorylated form of the substrate peptide).
On a 96-well plate, a particular VEGFR-2 antibody was seeded and 100 μL of the normal solution or the tested compound tested was applied, incubated at room temperature for 2.5 h and washed. Then, 100 μL of the prepared biotin antibody was added, incubated for an additional 1 h at room temperature and washed. Following, 100 μL of streptavidin solution was added at room temperature, incubated for 45 minutes and then, 100 μL of TMB Substrate solution was applied and incubated at room temperature for 30 minutes. Finally, 50 μL stop solution was added and the absorption was measured at 450 nm instantly. The standard curve, the X -axis concentrations, and the Y-axis absorbance were drawn. […]
Background: In an ELISA, binding on a coated surface is turned into a signal by an enzyme label.

The test system of the next experiment is HCT-116 cells. The experiment is described as follows: Annexin V-FITC/PI apoptosis assay, HCT-116. It counts as cell-based, human. The following applies: for increase in total apoptosis compared to the control: HCT-116; for %Apoptosis %Early / %Apoptosis %Late / %Necrosis: HCT-116, 48 h incubation; for %Apoptosis %Early: control 1.1; for %Apoptosis %Late: control 1.57; for %Necrosis: control 1.85. How it is done:
2.4. Annexin V-FITC/PI apoptosis assay.
For this study, annexin V-FITC / PI apoptosis detection kit was used; HCT -116 and MCF-7 cells were stained with annexin V fluorescein isothiocyanate (FITC) and propidium iodide (PI) counter-stained.1 x 10^5 HCT-116 cells were 48 h incubated with compound 1 or 11, trypsinized, washed with phosphate-buffered saline (PBS), stained in the dark at 37 °C for 15 min utes.
Finally, the cells analyzed with a cytometer of FACS Caliber flow.

The record followed here is PMC9176662, “Design, synthesis, molecular modeling and biological evaluation of novel Benzoxazole-Benzamide conjugates via a 2-Thioacetamido linker as potential anti-proliferative agents, VEGFR-2 inhibitors and apoptotic inducers” (Journal of Enzyme Inhibition and Medicinal Chemistry, 2022).

Structures are written as SMILES. Where “and” joins values, the source holds several entries; their conditions need not be identical. Equal values may be shown once.

For the compound `O=C(CSc1nc2ccccc2o1)Nc1ccc(C(=O)NC2CCCCC2)cc1` [Compound 1], in the experiment with Bcl-2 [1], the Bcl-2 expression result is “inhibited”. For the same compound, in the experiment on Bcl-2 [2], the Bcl-2 expression result was “inhibited”. Further, in the experiment on WI-38 cells, the IC50 (usually the concentration needed to halve the response being measured) came to 41900 ± 270 nM. The half-maximal inhibitory concentration (IC50) against VEGFR-2 Protein Kinase was 270 nM and 268 nM. In the experiment with HCT-116 cells, the “increase in total apoptosis compared to the control” value is reported as “approximately 3.4 fold”, the “%Apoptosis %Early” value is 4.86%, the “%Apoptosis %Late” value is reported as 8.95% and the “%Necrosis” value was determined as 1.55%.

For `O=C(CSc1nc2cc(Cl)ccc2o1)Nc1ccc(C(=O)Nc2ccc(Cl)cc2)cc1` [Compound 11], the Bcl-2 expression entry in the experiment on Bcl-2 [1] is listed as “inhibited”. In addition, in the experiment on Bcl-2 [2], the Bcl-2 expression entry was “inhibited”. In the experiment on WI-38 cells, this compound gave an IC50 of 103500 ± 700 nM. For the same compound, the IC50 against VEGFR-2 Protein Kinase is 360 nM and 361 nM. Further, in the experiment with HCT-116 cells, the “increase in total apoptosis compared to the control” value is listed as around 3.9 fold, the “%Apoptosis %Early” value is recorded as 6.01%, the “%Apoptosis %Late” value was 9.62% and the “%Necrosis” value is listed as 1.78%.
